From PubChem BioAssay AID1259411 (Chemical Carcinogenesis Research Information System (CCRIS), 2018) come the findings set out here.

The data set deals with rodent carcinogenicity bioassays, tumor incidence. The data set can be described thus: CCRIS carcinogenicity studies. An outline of the steps: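 NCI-built, expert-reviewed records of carcinogenicity and related test outcomes (mutagenicity, tumor promotion/inhibition) compiled from published and report sources, historical span 1985-2011, not updated.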

Active and inactive are the calls of the source. How the calls were made is not given here.

With `CCNc1nc(Cl)nc(NC(C)C)n1`, the carcinogen call by setting is: (Species: RAT, Strain/Sex: F344/FEMALE, Route: ORAL, Dose: 0, 10, 70, 200, 400 PPM IN DIET FOR 24 MO (STUDY DURATION: 24 MO), Dose: 0, 10, 70, 200, 400 PPM IN DIET FOR 24 MO (STUDY DURATION: 24 MO)) “inactive; negative”; (Species: RAT, Strain/Sex: F344/LATI/FEMALE, Route: ORAL, Dose: 0, 500, 1000 PPM TECHNICAL GRADE IN FEED FOR 8 WK THEN 0, 375, 750 PPM FOR LIFE SPAN (STUDY DURATION: LIFE SPAN), Dose: 0, 500, 1000 PPM TECHNICAL GRADE IN FEED FOR 8 WK THEN 0, 375, 750 PPM FOR LIFE SPAN (STUDY DURATION: LIFE SPAN), Tumor Site: Type of Lesion: UTERUS: ADENOCARCINOMA, HEMATOPOIETIC SYSTEM: LEUKEMIA OR LYMPHOMA) “active; positive”; (Species: RAT, Strain/Sex: F344/LATI/MALE, Route: ORAL, Dose: 0, 500, 1000 PPM TECHNICAL GRADE IN FEED FOR 8 WK THEN 0, 375, 750 PPM FOR LIFE SPAN (STUDY DURATION: LIFE SPAN), Dose: 0, 500, 1000 PPM TECHNICAL GRADE IN FEED FOR 8 WK THEN 0, 375, 750 PPM FOR LIFE SPAN (STUDY DURATION: LIFE SPAN), Tumor Site: Type of Lesion: MAMMARY GLAND: BENIGN TUMOR) “active; positive”; (Species: RAT, Strain/Sex: SPRAGUE-DAWLEY/FEMALE, Route: ORAL, Dose: 0, 70, 400 PPM IN DIET FOR 24 MO (STUDY DURATION: 24 MO), Dose: 0, 70, 400 PPM IN DIET FOR 24 MO (STUDY DURATION: 24 MO)) “inactive; negative”.
Turning to `COc1ccc([C@@H]2CC(=O)c3c(O)cc(O[C@@H]4O[C@H](CO[C@@H]5O[C@@H](C)[C@H](O)[C@@H](O)[C@H]5O)[C@@H](O)[C@H](O)[C@H]4O)cc3O2)cc1OC`, the carcinogen call (Species: MOUSE, Strain/Sex: B6C3F1/FEMALE, Route: ORAL, Dose: 0, 1.25, 5% IN DIET FOR 96 WK FOLLOWED BY BASAL DIET FOR AN ADDITIONAL 8 WK (STUDY DURATION: 104 WK), Dose: 0, 1.25, 5% IN DIET FOR 96 WK FOLLOWED BY BASAL DIET FOR AN ADDITIONAL 8 WK (STUDY DURATION: 104 WK)) was “inactive; negative” and the carcinogen call (Species: MOUSE, Strain/Sex: B6C3F1/MALE, Route: ORAL, Dose: 0, 1.25, 5% IN DIET FOR 96 WK FOLLOWED BY BASAL DIET FOR AN ADDITIONAL 8 WK (STUDY DURATION: 104 WK), Dose: 0, 1.25, 5% IN DIET FOR 96 WK FOLLOWED BY BASAL DIET FOR AN ADDITIONAL 8 WK (STUDY DURATION: 104 WK)) is “inactive; negative”.
Consider `C#CCN1C(=O)COc2cc(F)c(N3C(=O)C4=C(CCCC4)C3=O)cc21`, for which the carcinogen call by setting is: (Species: Mouse, Strain/Sex: Crj:CD-1 (ICR)/Female (51/Group), Route: Oral, Dose: 0, 36.6, 346.4, 859.1 mg/kg/day of 94.8% flumioxazin in diet for 78 wk, study duration 78 wk, Dose: 0, 36.6, 346.4, 859.1 mg/kg/day of 94.8% flumioxazin in diet for 78 wk, study duration 78 wk) “inactive; negative”; (Species: Mouse, Strain/Sex: Crj:CD-1 (ICR)/Male (51/Group), Route: Oral, Dose: 0, 31.1, 314.9, 754.1 mg/kg/day of 94.8% flumioxazin in diet for 78 wk, study duration 78 wk, Dose: 0, 31.1, 314.9, 754.1 mg/kg/day of 94.8% flumioxazin in diet for 78 wk, study duration 78 wk) “inactive; negative”; (Species: Rat, Strain/Sex: Crj:CD(SD)/Female (50/Group), Route: Oral, Dose: 0, 2.2, 21.8, 43.6 mg/kg/day of 94.8% flumioxazin in diet for up to 2 yr, study duration 2 yr, Dose: 0, 2.2, 21.8, 43.6 mg/kg/day of 94.8% flumioxazin in diet for up to 2 yr, study duration 2 yr) “inactive; negative”; (Species: Rat, Strain/Sex: Crj:CD(SD)/Male (50/Group), Route: Oral, Dose: 0, 1.8, 18.0, 36.5 mg/kg/day of 94.8% flumioxazin in diet for up to 2 yr, study duration 2 yr, Dose: 0, 1.8, 18.0, 36.5 mg/kg/day of 94.8% flumioxazin in diet for up to 2 yr, study duration 2 yr) “inactive; negative”.
Turning to `Cl`, the carcinogen call (Species: RAT, Strain/Sex: F344/MALE, Route: ORAL, Dose: 0, 0.25, 1, 4% IN DIET FOR 2 YR (STUDY DURATION: 2 YR), Dose: 0, 0.25, 1, 4% IN DIET FOR 2 YR (STUDY DURATION: 2 YR)) was “inactive; negative”.
In the case of `CC(=O)CN(N=O)C(=O)NCCCl`, the carcinogen call was “active; positive” (Species: RAT, Strain/Sex: F344/FEMALE, Route: GAVAGE, Dose: 0, 11.5 MG/ML IN CORN OIL/ETHYL ACETATE (2:1) 2/WK FOR 30 WK (STUDY DURATION: LIFETIME), Tumor Site: Type of Lesion: LIVER: TUMOR); “inactive; negative” (Species: RAT, Strain/Sex: F344/FEMALE, Route: ORAL, Dose: 0, 46 MG/L IN DRINKING WATER 5 D/WK FOR 30 WK (STUDY DURATION: LIFETIME)); “active; positive” (Species: RAT, Strain/Sex: F344/MALE, Route: GAVAGE, Dose: 0, 11.5 MG/ML IN CORN OIL/ETHYL ACETATE (2:1) 2/WK FOR 30 WK (STUDY DURATION: LIFETIME), Tumor Site: Type of Lesion: NERVOUS SYSTEM: TUMOR, SMALL INTESTINE: TUMOR); “active; positive” (Species: RAT, Strain/Sex: F344/MALE, Route: ORAL, Dose: 0, 46 MG/L IN DRINKING WATER 5 D/WK FOR 30 WK (STUDY DURATION: LIFETIME), Tumor Site: Type of Lesion: LUNG: TUMOR, SKIN: TUMOR).
Turning to `C=CC(O)c1ccc2c(c1)OCO2` (stereo not drawn), the carcinogen call by setting is: (Species: MOUSE, Strain/Sex: CD-1/FEMALE, Route: ORAL, Dose: 0.083% IN DIET FROM D 1 TO 10, 0.17% FROM D 11 TO 20, 0.55% THEREAFTER TO 12 MO, Tumor Site: Type of Lesion: LIVER: HEPATOCELLULAR CARCINOMA) “active; positive”; (Species: MOUSE, Strain/Sex: CD-1/MALE, Route: SUBCUTANEOUS, Dose: TOTAL DOSE: 3.18 UMOL IN TRIOCTANOIN OVER 22 D, Tumor Site: Type of Lesion: LIVER: HEPATOCELLULAR CARCINOMA) “active; positive”; (Species: RAT, Strain/Sex: STRAIN-CD/MALE, Route: ORAL, Dose: 0.25% IN DIET FOR 17 MO, 0.55% IN DIET FOR 10 MO, Tumor Site: Type of Lesion: LIVER: HEPATOCELLULAR CARCINOMA) “active; positive”.
For `C[C@H]1C(=O)O[C@@H]2CCN3CC=C(COC(=O)[C@](C)(O)[C@]1(C)O)[C@H]23`, the carcinogen call (Species: RAT, Route: ORAL, Tumor Site: Type of Lesion: LIVER) is “active; positive”.
Turning to `ClCc1ccccn1`, the carcinogen call was “inactive; negative” (Species: MOUSE, Strain/Sex: B6C3F1/FEMALE, Route: GAVAGE, Dose: 0, 125, 250 MG/KG IN AQ SOLN, Dose: 0, 125, 250 MG/KG IN AQ SOLN); “inactive; negative” (Species: MOUSE, Strain/Sex: B6C3F1/MALE, Route: GAVAGE, Dose: 0, 125, 250 MG/KG IN AQ SOLN, Dose: 0, 125, 250 MG/KG IN AQ SOLN); “inactive; negative” (Species: RAT, Strain/Sex: F344/FEMALE, Route: GAVAGE, Dose: 0, 75, 150 MG/KG IN AQ SOLN, Dose: 0, 75, 150 MG/KG IN AQ SOLN); “inactive; negative” (Species: RAT, Strain/Sex: F344/MALE, Route: GAVAGE, Dose: 0, 75, 150 MG/KG IN AQ SOLN, Dose: 0, 75, 150 MG/KG IN AQ SOLN).
